92 sequences from patent US8865182B2 (priority 2009, dated 2014) can be followed below.

The first assay concerns HLA-B44 supertype (B*1801, B*4001, B*4002, B*4403, B*4501). In kind it is binding, human.
On to “EECSCYPDY (Influenza Virus) [SEQ ID NO: 107]”, for which the “# Alleles Bound” value was 3.
For “DEALKMTIA (Influenza Virus) [SEQ ID NO: 148]”, the “# Alleles Bound” value is given as 4.
For “SEFNKACELT (Influenza Virus) [SEQ ID NO: 200]”, the “# Alleles Bound” value came to 5.
In the case of “FERATIMAA (Influenza Virus) [SEQ ID NO: 138]”, the “# Alleles Bound” value is 4.
As to “SETLQRFAW (Influenza Virus) [SEQ ID NO: 152]”, the “# Alleles Bound” value worked out at 3.
Consider AESRKLLLI [SEQ ID NO: 203], for which the “# Alleles Bound” value came out at 4.
Same read-out and setting: in the case of “EEVRHRLKI (Influenza Virus) [SEQ ID NO: 160]” it was 5; in that of SEQAAEAMEV [SEQ ID NO: 78], 6.
Still for that read-out and setting: the figure for “KEDKRYGPAL (Influenza Virus) [SEQ ID NO: 309]” is 6.
Still for that read-out and setting: in the case of “LETLILLRAF (Influenza Virus) [SEQ ID NO: 150]” it was 4.
GERQNATEI [SEQ ID NO: 135]: the “# Alleles Bound” value is listed as 4.
Take “MEVASQARQM (Influenza Virus) [SEQ ID NO: 79]”: the “# Alleles Bound” value amounted to 5.
For the sequence “EECSCYPRY (Influenza Virus) [SEQ ID NO: 108]”, the “# Alleles Bound” value was found to be 4.
As to TEVETYVLSI [SEQ ID NO: 76], the “# Alleles Bound” value is recorded as 4.
With “RESRNPGNA (Influenza Virus) [SEQ ID NO: 136]”, the “# Alleles Bound” value was 4.
On the same count and under the same terms, the figure for “MEFSLTDPRL (Influenza Virus) [SEQ ID NO: 201]” is 6; for “FEMIWDPNG (Influenza Virus) [SEQ ID NO: 109]” it is 3.
Regarding “FEQITFMQA (Influenza Virus) [SEQ ID NO: 161]”, the “# Alleles Bound” value was determined as 5.
Consider QEIRTFSFQL [SEQ ID NO: 163], for which the “# Alleles Bound” value was 4.
For “AESRKLLLIV (Influenza Virus) [SEQ ID NO: 204]”, the “# Alleles Bound” value stood at 3.
For “LEEMSRDWLM (Influenza Virus) [SEQ ID NO: 149]”, the “# Alleles Bound” value came out at 4.
In the case of GEISPLPSL [SEQ ID NO: 151], the “# Alleles Bound” value is 6.
Still for that read-out and setting: in the case of “IEKIRPLLI (Influenza Virus) [SEQ ID NO: 263]” it was 5; in that of “HENRMVLAST (Influenza Virus) [SEQ ID NO: 77]”, 4.
Consider “IESVNNAVV (Influenza Virus) [SEQ ID NO: 264]”, for which the “# Alleles Bound” value is 6.
In the case of “GEETIEERF (Influenza Virus) [SEQ ID NO: 198]”, the “# Alleles Bound” value was 5.
With “PELRSLSSWI (Influenza Virus) [SEQ ID NO: 199]”, the “# Alleles Bound” value was found to be 4.
Take FEDLRVSSF [SEQ ID NO: 137]: the “# Alleles Bound” value turned out to be 5.
The same measure, in the same setting: the figure for CEKLEQSGL [SEQ ID NO: 262] is 4; for “FERATIMAAF (Influenza Virus) [SEQ ID NO: 139]” it is 5.
On to “YEAIEECLI (Influenza Virus) [SEQ ID NO: 205]”, for which the “# Alleles Bound” value came to 4.
As for “LEVEQEIRT (Influenza Virus) [SEQ ID NO: 162]”, the “# Alleles Bound” value was determined as 4.
As for “RELVRKTRFL (Influenza Virus) [SEQ ID NO: 307]”, the “# Alleles Bound” value is reported as 4.
Same read-out and setting: the figure for “WEKYCVLEI (Influenza Virus) [SEQ ID NO: 202]” is 5.

Another assay has as its system human donor PBMC. The class given is cell-based.
The sequence SLMLQIGNMISIWVSHS [SEQ ID NO: 19] had a Recall of 1.
With YGFVANFSMELPSFG [SEQ ID NO: 51], the Recall is 3.
With KGILGFVFTLTVPSE [SEQ ID NO: 13], the Recall is listed as 6.
The same measure, in the same setting: the figure for DPLVVAASIIGILHL [SEQ ID NO: 18] is 2.
Still for that read-out and setting: the figure for IKAVRGDLNFVNRAN [SEQ ID NO: 58] is 4; for KAAMGLRISSSFSFG [SEQ ID NO: 57] it is 3.
For MMGMFNMLSTVLGVS [SEQ ID NO: 49], the Recall is given as 10.
Same read-out and setting: in the case of RSALILRGSVAHKSC [SEQ ID NO: 24] it was 2.

The next assay deals with HLA-A2 supertype (A*0201, A*0202, A*0203, A*0206, A*6802). In kind it is binding, human.
For “YINTALLNA (Influenza Virus) [SEQ ID NO: 175]”, the “# Alleles Bound” value was found to be 5.
Regarding “MAWTVVNSI (Influenza Virus) [SEQ ID NO: 172]”, the “# Alleles Bound” value is 5.
Consider FQGRGVFEL [SEQ ID NO: 116], for which the “# Alleles Bound” value is 4.
Take “SIIGILHLI (Influenza Virus) [SEQ ID NO: 80]”: the “# Alleles Bound” value was determined as 5.
The same measure, in the same setting: the figure for ALLKHRFEI [SEQ ID NO: 171] is 4; for “FLDIWTYNA (Influenza Virus) [SEQ ID NO: 65]” it is 4.
In the case of “RLCNPLNPFV (Influenza Virus) [SEQ ID NO: 224]”, the “# Alleles Bound” value is given as 4.
On to “LLIDGTASL (Influenza Virus) [SEQ ID NO: 220]”, for which the “# Alleles Bound” value is reported as 5.
Still for that read-out and setting: in the case of ILGFVFTLTV [SEQ ID NO: 71] it was 4; in that of CLPACVYGL [SEQ ID NO: 114], 4.
As to “LQDCKIAPL (Influenza Virus) [SEQ ID NO: 271]”, the “# Alleles Bound” value is 4.
As to “LQNSQVFSL (Influenza Virus) [SEQ ID NO: 115]”, the “# Alleles Bound” value amounted to 4.
For the sequence “AQTDCVLEA (Influenza Virus) [SEQ ID NO: 214]”, the “# Alleles Bound” value turned out to be 4.
Take “RMQFSSLTV (Influenza Virus) [SEQ ID NO: 274]”: the “# Alleles Bound” value is on record as 4.
Same read-out and setting: in the case of “AQMALQLFI (Influenza Virus) [SEQ ID NO: 223]” it was 4.
As for “QVDCFLWHV (Influenza Virus) [SEQ ID NO: 142]”, the “# Alleles Bound” value is given as 5.
Consider “LLMDALKLSI (Influenza Virus) [SEQ ID NO: 173]”, for which the “# Alleles Bound” value turned out to be 5.
For “RMFLAMITYI (Influenza Virus) [SEQ ID NO: 219]”, the “# Alleles Bound” value was 4.
On to RLIDFLKDV [SEQ ID NO: 216], for which the “# Alleles Bound” value turned out to be 4.
Still for that read-out and setting: the figure for “ALSTLCLLI (Influenza Virus) [SEQ ID NO: 90]” is 4; for “LLAWKQVLA (Influenza Virus) [SEQ ID NO: 174]” it is 3.
With “FLWHVRKQV (Influenza Virus) [SEQ ID NO: 143]”, the “# Alleles Bound” value stood at 5.
For the sequence “LLTEVETYV (Influenza Virus) [SEQ ID NO: 69]”, the “# Alleles Bound” value was determined as 5.
With “CVLEAMAFL (Influenza Virus) [SEQ ID NO: 215]”, the “# Alleles Bound” value was 4.
As to MQALQLLLEV [SEQ ID NO: 155], the “# Alleles Bound” value turned out to be 5.
The same measure, in the same setting: the figure for “FQNWGIEHI (Influenza Virus) [SEQ ID NO: 272]” is 4; for FQVDCFLWHV [SEQ ID NO: 141] it is 5.
Same read-out and setting: the figure for “RMGTVTTEV (Influenza Virus) [SEQ ID NO: 72]” is 4.
The same measure, in the same setting: in the case of “QIRGFVYFV (Influenza Virus) [SEQ ID NO: 217]” it was 4.
In the case of “FQNWGIEPI (Influenza Virus) [SEQ ID NO: 273]”, the “# Alleles Bound” value is on record as 4.
Turning to NMLSTVLGV [SEQ ID NO: 221], the “# Alleles Bound” value was determined as 4.
Same read-out and setting: in the case of GLFGAIAGFI [SEQ ID NO: 64] it was 3; in that of “CINGSCFTV (Influenza Virus) [SEQ ID NO: 92]”, 4; in that of “IILKANFSV (Influenza Virus) [SEQ ID NO: 144]”, 3.

The test system of a further assay is HLA-A1 supertype (A*101, A*2601, A*2902, A*3002). The class given is binding, human.
With “HIASMRRNY (Influenza Virus) [SEQ ID NO: 168]”, the “# Alleles Bound” value came out at 1.
For “LVSDGGPNLY (Influenza Virus) [SEQ ID NO: 213]”, the “# Alleles Bound” value is given as 3.
In the case of “YVDGFEPNGY (Influenza Virus) [SEQ ID NO: 167]”, the “# Alleles Bound” value is on record as 2.
Still for that read-out and setting: in the case of VTRREVHIY [SEQ ID NO: 165] it was 1.
As for “QWSQEPTMLY (Influenza Virus) [SEQ ID NO: 269]”, the “# Alleles Bound” value is given as 2.
The same measure, in the same setting: the figure for “VSHCRATEY (Influenza Virus) [SEQ ID NO: 169]” is 1; for “ITQFESLKLY (Influenza Virus) [SEQ ID NO: 153]” it is 1.
On the same count and under the same terms, the figure for MLASIDLKY [SEQ ID NO: 211] is 4; for “GTVKDRSPY (Influenza Virus) [SEQ ID NO: 86]” it is 2; for “VSFDQNLDY (Influenza Virus) [SEQ ID NO: 87]” it is 2.
In the case of KSCLPACVY [SEQ ID NO: 113], the “# Alleles Bound” value was determined as 2.
MLANIDLKY [SEQ ID NO: 210]: the “# Alleles Bound” value was found to be 3.
For “KSCINRCFY (Influenza Virus) [SEQ ID NO: 89]”, the “# Alleles Bound” value worked out at 1.
For the sequence “ASQGTKRSY (Influenza Virus) [SEQ ID NO: 110]”, the “# Alleles Bound” value amounted to 1.
As to “TIASVPAPRY (Influenza Virus) [SEQ ID NO: 140]”, the “# Alleles Bound” value came to 2.
The same measure, in the same setting: in the case of “YSHGTGTGY (Influenza Virus) [SEQ ID NO: 206]” it was 4.

A further assay relates to HLA class II molecules (HLA-DRB1*0101, *0301, *0401, *0404, *0405, *0701, *0802, *0901, *1101, *1302, *1501, HLA-DRB4*0101, HLA-DRB5*0101). In kind it is binding, human.
Take SLMLQIGNMISIWVSHS [SEQ ID NO: 19]: the “# Alleles Bound” value is 13.
The same measure, in the same setting: the figure for YGFVANFSMELPSFG [SEQ ID NO: 51] is 9; for KGILGFVFTLTVPSE [SEQ ID NO: 13] it is 11; for DPLVVAASIIGILHL [SEQ ID NO: 18] it is 6.
Regarding IKAVRGDLNFVNRAN [SEQ ID NO: 58], the “# Alleles Bound” value is 9.
Same read-out and setting: the figure for KAAMGLRISSSFSFG [SEQ ID NO: 57] is 13; for MMGMFNMLSTVLGVS [SEQ ID NO: 49] it is 12.
With RSALILRGSVAHKSC [SEQ ID NO: 24], the “# Alleles Bound” value was 12.
